# Laboratory results taken from paper PMC2632993, “Conformational changes in α7 acetylcholine receptors underlying allosteric modulation by divalent cations” (BMC Pharmacology, 2009).
# Tests used:
# Type in all cases: cell-based, chick
# [1] = molecular target: T1, α7 AChR E^44C mutant (C^115A/L^247T background) (Gallus gallus, UniProt P22770, C138A/E67C/L270T); test: ACh dose-response, two-electrode voltage clamp in Xenopus oocytes
# Source text: (§1) A cDNA clone of the chick α7 receptor containing two mutations (C^115A, L^247T) was used as the parental phenotype for mutations described in this study. We mutated the lone unpaired cysteine in the extracellular domain (C^115) to alanine to allow for a more straightforward interpretation of thiol modification experiments. […] We included the mutation of leucine 247 in the M2 transmembrane domain (L^247T; L9'T) because of its large current amplitudes and non-desensitizing kinetics compared to wild-type α7 receptors. […] All mutations were introduced by site-directed mutagenesis using the QuikChange method (Agilent Technologies, La Jolla, CA) as described previously, and were confirmed by DNA sequencing.
# (§2) cRNA was prepared using the T7 RNA polymerase and mMessage mMachine kit as described by the manufacturer (Applied Biosystems, Austin, TX). Oocytes were surgically removed and prepared from female Xenopus laevis in accordance with UNC Institutional Animal Care and Use Committee guidelines. Oocytes were injected with 20 ng of cRNA and incubated at 18°C in ND96 (96 mM NaCl, 2 mM KCl, 1 mM MgCl2, 1.8 mM CaCl2, 5 mM Na pyruvate, 50 μg/ml gentamicin, 5 mM HEPES, pH 7.5) for 2–5 days before use. For some mutants we co-injected cRNA encoding the human RIC-3 [38], a protein shown to enhance expression of α7 AChRs in both mammalian cells and oocytes.
# (§3) Oocytes were superfused in normal extracellular solution containing a reduced Ca^2+ concentration (ESLC; 96 mM NaCl, 2 mM KCl, 1 mM MgCl2, 0.1 mM CaCl2, and 10 mM HEPES, pH 7.5). […] Two-electrode voltage clamp was performed with a GeneClamp 500B controlled by pCLAMP8 software (Molecular Devices, Sunnyvale, CA). Electrodes were filled with 3 M KCl contacting Ag-AgCl wires and had resistances of 0.5 to 2.0 MΩ. Currents were recorded at a constant holding potential of -60 mV. Currents were low pass filtered at 50 Hz and sampled at 100 Hz. Agonist dose-response curves were obtained as described previously, and data were fit to the Hill equation using Origin software (Microcal Software, Northampton, MA).
# (§4) MTSEA was prepared daily in distilled water and stored on ice. Stock solution was diluted to the appropriate working concentration in ESLC immediately before each application. […] To measure the effect of Ba^2+ on modification rates we pre-applied 10 mM Ba^2+ for 30 seconds prior to co-application of 10 mM Ba^2+ plus MTSEA. […] Kinetic data were analyzed as described previously; rate data were fit to a single exponential to extract a pseudo-first order rate constant; this was divided by the MTSEA concentration used to determine the second order rate constant for thiol modification.
# [2] = molecular target: α7 C^115A/L^247T receptor (Gallus gallus, UniProt P22770, C138A/L270T); test: as above
# Source text: as §1, §2, §3, §4
# [3] = molecular target: T2, α7 AChR N^52C mutant (C^115A/L^247T background) (Gallus gallus, UniProt P22770, C138A/L270T/N75C); test: as above
# Source text: as §1, §2, §3, §4
# [4] = molecular target: T3, α7 AChR N^170C mutant (C^115A/L^247T background) (Gallus gallus, UniProt P22770, C138A/L270T/N193C); test: as above; settings: co-expression with human RIC-3
# Source text: as §1, §2, §3, §4
# [5] = molecular target: T4, α7 AChR E^172C mutant (C^115A/L^247T background) (Gallus gallus, UniProt P22770, C138A/E195C/L270T); test: as above; settings: co-expression with human RIC-3
# Source text: as §1, §2, §3, §4
# [6] = molecular target: T5, α7 AChR M^40C/E^172Q mutant (C^115A/L^247T background) (Gallus gallus, UniProt P22770, C138A/E195Q/L270T/M63C); test: as above; settings: co-expression with human RIC-3
# Source text: as §1, §2, §3, §4
# [7] = molecular target: T6, α7 AChR M^37C mutant (C^115A/L^247T background) (Gallus gallus, UniProt P22770, C138A/L270T/M60C); test: as above
# Source text: as §1, §2, §3, §4
# [8] = molecular target: T7, α7 AChR M^40C mutant (C^115A/L^247T background) (Gallus gallus, UniProt P22770, C138A/L270T/M63C)
# T7 construct: expressed in transfected cells; host or cells: Xenopus laevis oocytes injected with cRNA
# Source text: as §1, with “sequencing. […]” for “sequencing.”
# Oocytes were superfused in normal extracellular solution containing a reduced Ca^2+ concentration (ESLC; 96 mM NaCl, 2 mM KCl, 1 mM MgCl2, 0.1 mM CaCl2, and 10 mM HEPES, pH 7.5). […] Currents were recorded at a constant holding potential of -60 mV. […]
# MTSEA was prepared daily in distilled water and stored on ice. […] Kinetic data were analyzed as described previously; rate data were fit to a single exponential to extract a pseudo-first order rate constant; this was divided by the MTSEA concentration used to determine the second order rate constant for thiol modification.
# [9] = molecular target: T1, α7 AChR E^44C mutant (C^115A/L^247T background); test: MTSEA thiol modification rate (SCAM) from ACh-evoked currents in oocytes
# Description: (§5) ACh-evoked current amplitudes decreased following brief, repeated exposure to a limiting concentration of MTSEA (5 μM, 15 seconds). To ensure that the modification reactions were complete, all rate measurements included a final prolonged application of ~100-fold higher concentrations of MTSEA (Fig. 3A and 3B, right). Currents measured following this application represent the endpoint of the reaction between MTSEA and receptors. When the same protocol included Ba^2+ pretreatment and co-application with MTSEA (see Methods), the decreases in current amplitudes were slowed but the same endpoint was obtained (Fig. 3B). Normalized current amplitudes were plotted as a function of the cumulative time of exposure to MTSEA, and pseudo first-order rates were extracted from the single-exponential fits (Fig. 3C).
# (§6) Figure 3 Barium slows the rate of MTSEA modification at M^37C. Example of experimental paradigm used to assess Ba^2+ effects on modification rates. […] Endpoints of MTSEA modification are determined by prolonged application of 500 μM MTSEA (right). (B) The same protocol, including Ba^2+ pretreatment and co-application with MTSEA. Current traces are truncated in both (A) and (B) between consecutive MTSEA applications; in all cases the currents were allowed to return to baseline prior to the next application of MTSEA ± ACh. (C) Peak current amplitudes from (A) and (B) are normalized and plotted versus total MTSEA exposure time. Data from this single experiment (no error bars) are fitted to a single-exponential decay (solid line) to extract an apparent pseudo first-order rate constant. The pseudo first-order rate constants calculated in this experiment were 0.011 s^-1 and 0.0019 s^-1 for control (A) and +Ba^2+ (B) measurements, respectively. Second-order rate constants are calculated from these values (Figures 4–6; Table 2).
# (§7) Oocytes were superfused in normal extracellular solution containing a reduced Ca^2+ concentration (ESLC; 96 mM NaCl, 2 mM KCl, 1 mM MgCl2, 0.1 mM CaCl2, and 10 mM HEPES, pH 7.5). This solution minimized Ca^2+ influx and eliminated Ca^2+-activated chloride currents. Two-electrode voltage clamp was performed with a GeneClamp 500B controlled by pCLAMP8 software (Molecular Devices, Sunnyvale, CA). Electrodes were filled with 3 M KCl contacting Ag-AgCl wires and had resistances of 0.5 to 2.0 MΩ. Currents were recorded at a constant holding potential of -60 mV. Currents were low pass filtered at 50 Hz and sampled at 100 Hz. Agonist dose-response curves were obtained as described previously, and data were fit to the Hill equation using Origin software (Microcal Software, Northampton, MA).
# (§8) MTSEA was prepared daily in distilled water and stored on ice. Stock solution was diluted to the appropriate working concentration in ESLC immediately before each application. […] The limiting dose, yielding 20–40% of the maximal MTSEA effect, was identified for each mutant. […] To measure the effect of Ba^2+ on modification rates we pre-applied 10 mM Ba^2+ for 30 seconds prior to co-application of 10 mM Ba^2+ plus MTSEA. This concentration of Ba^2+ is equivalent to an approximate […] for the modulatory effects in both parental and mutant AChRs. Kinetic data were analyzed as described previously; rate data were fit to a single exponential to extract a pseudo-first order rate constant; this was divided by the MTSEA concentration used to determine the second order rate constant for thiol modification.
# [10] = molecular target: T2, α7 AChR N^52C mutant (C^115A/L^247T background); test: as above; settings: ± standard error
# Description: as §5, §6, §7, §8
# [11] = molecular target: T3, α7 AChR N^170C mutant (C^115A/L^247T background); test: as above; settings: ± standard error
# Description: as §5, §6, §7, §8
# [12] = molecular target: T4, α7 AChR E^172C mutant (C^115A/L^247T background); test: as above; settings: ± standard error
# Description: as §5, §6, §7, §8
# [13] = molecular target: T5, α7 AChR M^40C/E^172Q mutant (C^115A/L^247T background); test: as above; settings: ± standard error
# Description: as §5, §6, §7, §8
# [14] = molecular target: T6, α7 AChR M^37C mutant (C^115A/L^247T background); test: as above; settings: for pseudo first-order rate constant of MTSEA modification: 5 μM MTSEA, single experiment
# Description: as §5, §6, §7, §8
# [15] = molecular target: T7, α7 AChR M^40C mutant (C^115A/L^247T background); test: as above; settings: ± standard error
# Description: as §5, §6, §7, §8
# [16] = MTSEA + 10 mM Ba^2+ (30 s pre-application), ± standard error
# [17] = MTSEA + ~EC110 ACh, ± standard error
# [18] = MTSEA + 10 mM Ba^2+ (30 s pre-application)
# [19] = co-expression with human RIC-3, MTSEA + 10 mM Ba^2+ (30 s pre-application)
# [20] = co-expression with human RIC-3, MTSEA + ~EC110 ACh
# [21] = co-expression with human RIC-3, MTSEA alone
smiles,measurement,setting,value
"CC(=O)OCC[N+](C)(C)C [ACh, acetylcholine chloride]",ACh Imax,[1],5.4 μA
same,Hill coefficient of ACh dose-response,[1]; + 10 mM BaCl2,2.9 ± 0.7
same,Hill coefficient of ACh dose-response,[1]; -Ba^2+,1.7 ± 0.2
same,ACh Imax,[2],6.9 μA
same,Hill coefficient of ACh dose-response,[2]; + 10 mM BaCl2,1.9 ± 0.4
same,Hill coefficient of ACh dose-response,[2]; -Ba^2+,2.5 ± 0.2
same,ACh Imax,[3],0.34 μA
same,ACh Imax,[4],1.7 μA
same,ACh Imax,[5],1.3 μA
same,ACh Imax,[6],0.7 μA
same,ACh Imax,[7],0.92 μA
same,ACh Imax,[8],3.0 μA
"CS(=O)(=O)SCCN [MTSEA, 2-aminoethylmethane thiosulfonate]","MTSEA modification rate (second-order rate constant), + Ba^2+",[9]; [16],"9.3 ± 0.1(8) × 10^3, M^-1 S^-1"
same,"MTSEA modification rate (second-order rate constant), + ACh",[9]; [17],"0.90 ± 0.05 (4) × 10^3, M^-1 S^-1"
same,"MTSEA modification rate (second-order rate constant), control","[9]; MTSEA alone, ± standard error","23 ± 0.7 (4) × 10^3, M^-1 S^-1"
same,MTSEA modification rate in the presence of Ba^2+ compared to that in the presence of ACh,[9]; higher with Ba^2+,~ 10 fold
same,"MTSEA modification rate (second-order rate constant), + Ba^2+",[10]; [18],"0.26 ± 0.02 (7) × 10^3, M^-1 S^-1"
same,"MTSEA modification rate (second-order rate constant), + ACh",[10]; MTSEA + ~EC110 ACh,"1.4 ± 0.04 (7) × 10^3, M^-1 S^-1"
same,"MTSEA modification rate (second-order rate constant), control",[10]; MTSEA alone,"0.40 ± .08 (9) × 10^3, M^-1 S^-1"
same,"MTSEA modification rate (second-order rate constant), + Ba^2+",[11]; [19],"3.7 ± 0.06 (9) × 10^3, M^-1 S^-1"
same,"MTSEA modification rate (second-order rate constant), + ACh",[11]; [20],"5.7 ± 0.1 (7) × 10^3, M^-1 S^-1"
same,"MTSEA modification rate (second-order rate constant), control",[11]; [21],"3.3 ± .05 (7) × 10^3, M^-1 S^-1"
same,"MTSEA modification rate (second-order rate constant), + Ba^2+",[12]; [19],"7.3 ± 0.3 (6) × 10^3, M^-1 S^-1"
same,"MTSEA modification rate (second-order rate constant), + ACh",[12]; [20],"3.5 ± 0.1 (5) × 10^3, M^-1 S^-1"
same,"MTSEA modification rate (second-order rate constant), control",[12]; [21],"15 ± 0.4 (5) × 10^3, M^-1 S^-1"
same,"MTSEA modification rate (second-order rate constant), + Ba^2+",[13]; [19],"2.0 ± 0.3 (6) × 10^3, M^-1 S^-1"
same,"MTSEA modification rate (second-order rate constant), + ACh",[13]; [20],"1.3 ± 0.1 (5) × 10^3, M^-1 S^-1"
same,"MTSEA modification rate (second-order rate constant), control",[13]; [21],"14 ± 0.5 (5) × 10^3, M^-1 S^-1"
same,pseudo first-order rate constant of MTSEA modification,[14]; +Ba^2+,0.0019 s⁻¹
same,pseudo first-order rate constant of MTSEA modification,[14]; control,0.011 s⁻¹
same,"MTSEA modification rate (second-order rate constant), + Ba^2+",[14]; [16],"0.40 ± 0.02 (5) × 10^3, M^-1 S^-1"
same,"MTSEA modification rate (second-order rate constant), + ACh",[14]; [17],"0.30 ± 0.05 (4) × 10^3, M^-1 S^-1"
same,"MTSEA modification rate (second-order rate constant), control","[14]; MTSEA alone, ± standard error","2.4 ± .03 (10) × 10^3, M^-1 S^-1"
same,"MTSEA modification rate (second-order rate constant), + Ba^2+",[15]; [18],"2.8 ± 0.05 (7) × 10^3, M^-1 S^-1"
same,"MTSEA modification rate (second-order rate constant), + ACh",[15]; MTSEA + ~EC110 ACh,"2.2 ± 0.4 (3) × 10^3, M^-1 S^-1"
same,"MTSEA modification rate (second-order rate constant), control",[15]; MTSEA alone,"16 ± 0.2 (13) × 10^3, M^-1 S^-1"
